Measured values reported in patent EP4471049A1 (Zealand Pharma A/S, priority 2023, dated 2024).
*1 amine or outer side, *2 acyl side, *3 side chain or, on linkers, in order; H or OH if unused. Where a SMILES comes first, the peptide text is derived from it. Bridges are numbered along the chain shown (N, C = ends). [ ]: non-standard residue; d: D form. 2Nal = N[C@@H](Cc1ccc2ccccc2c1)C(=O)O; AEF = NCCOc1ccc(C[C@H](N)C(=O)O)cc1; X1 = O=C(Cc1ccc(CN[*:1])cc1)[*:2]; 3Pal = N[C@@H](Cc1cccnc1)C(=O)O; αMeL = CC(C)C[C@](C)(N)C(=O)O; CH2COCH2 = O=C(C[*:1])C[*:2]; 3Amb = NCc1cccc(C(=O)O)c1; Dab = NCC[C@H](N)C(=O)O

Tests used:
[1] = Peptide stability in simulated intestinal fluid (SIF); type: in vitro ADME; conditions: 37 °C, pH 6.8, porcine pancreatin 10 g/L, 10 µM; for remaining at 4 h, 10 µM / remaining at 1 h, 10 µM: pig, simulated intestinal fluid (SIF) with porcine pancreatin; for remaining at 4 h, 10 µM: read-out: SIF (% remaining 4 h)
Procedure: (§1) SGF was prepared by dissolving sodium chloride (0.2 g) in 50 mL of water. A volume of 0.7 mL of 10 M HCl was added to adjust the pH of the solution to 1.2 and the volume made up to 100 mL with water. […] SIF was prepared by dissolving monobasic potassium phosphate (0.68 g) in 50 mL of water and adjusting the pH to 6.8 with 1 M NaOH. The volume was subsequently made up to 100 mL with water. 200 mg porcine pancreatin (P1625, Sigma Aldrich) was gently dissolved into 20 mL preheated (37 °C) solution (10 g/L) immediately prior to the incubation.
(§2) The incubation was performed at 37 °C with gentle shaking. […] After the last timepoint, the sampling plate was mixed for 10 min on a shaking table and centrifuged 10 min at 2200 g. 70 µL resulting supernatant was diluted with 150 µL water, mixed and centrifugated before analysis by liquid chromatography high resolution mass spectrometry. […] Percent remaining at each timepoint was calculated relative to timepoint zero based on absolute peak areas.
Compounds with a SIF stability (after 4 h) above 70% are considered highly SIF stable.

[2] = Peptide stability in simulated gastric fluid (SGF); type: in vitro ADME; conditions: 37 °C, pH 1.2, porcine pepsin 3.2 g/L; for SGF (% remaining 1 h) / SGF (% remaining 4 h): 10 µM; for remaining at 4 h, 10 µM / remaining at 1 h, 10 µM: pig, simulated gastric fluid (SGF) with porcine pepsin
Procedure: as §1, §2
Compounds with a SGF stability (after 4 h) above 70% are considered highly SGF stable. […] Table 3-4: SGF data

[3] = biological target: T1, human IL-23R (Homo sapiens, UniProt Q5VWK5); test: biochemical; conditions: for Emax: read-out: % displacement (hIL-23R binding)
T1 sequence (Q5VWK5 22-629): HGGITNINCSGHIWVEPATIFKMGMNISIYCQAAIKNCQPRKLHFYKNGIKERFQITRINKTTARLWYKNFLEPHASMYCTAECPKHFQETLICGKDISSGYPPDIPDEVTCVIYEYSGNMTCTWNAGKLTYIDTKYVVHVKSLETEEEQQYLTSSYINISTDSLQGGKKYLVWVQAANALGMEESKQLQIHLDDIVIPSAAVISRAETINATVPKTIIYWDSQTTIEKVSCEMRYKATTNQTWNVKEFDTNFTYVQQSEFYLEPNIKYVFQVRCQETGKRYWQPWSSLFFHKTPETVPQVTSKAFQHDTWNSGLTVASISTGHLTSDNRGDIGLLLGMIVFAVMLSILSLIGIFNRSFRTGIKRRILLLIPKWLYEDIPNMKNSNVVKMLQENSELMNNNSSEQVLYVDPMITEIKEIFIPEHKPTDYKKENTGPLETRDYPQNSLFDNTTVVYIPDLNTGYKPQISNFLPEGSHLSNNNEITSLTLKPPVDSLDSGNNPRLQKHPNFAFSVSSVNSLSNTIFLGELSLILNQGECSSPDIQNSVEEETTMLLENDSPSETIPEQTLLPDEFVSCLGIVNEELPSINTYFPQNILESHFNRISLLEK
Procedure, shortened: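 BRET displacement of a TAMRA-labelled reference compound from N-terminal Nanoluc-IL-23R fusion protein in membranes from stably transfected HEK293 cells. Incubation 2 h at room temperature, then Nanoluc substrate was added and the TAMRA/Nanoluc ratio read. IC50 and maximal displacement came from 4-parameter logistic fits.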

Row | Compound | % displacement (hIL-23R binding) [3] [%] | remaining at 4 h, 10 µM ([1]; 4 h) [%] | remaining at 4 h, 10 µM [2] [%] | IC50 [3] [pM] | remaining at 1 h, 10 µM [2] [%] | further results
1 | CC(C)C[C@@H]1NC(=O)[C@H](Cc2c[nH]c3ccccc23)NC(=O)[C@H](Cc2c[nH]c3ccccc23)NC(=O)[C@@H]2CSCC(=O)CSC[C@H](NC(=O)[C@H](CO)NC(=O)[C@@H](NC(=O)[C@@H](N)CC(=O)O)CSCC(=O)CSC[C@@H](C(=O)N[C@@H](CCCNC(=N)N)C(N)=O)NC1=O)C(=O)N[C@@H](Cc1c[nH]c3ccccc13)C(=O)N[C@@H](CCC(N)=O)C(=O)N2 (single isomer, unassigned) [I3 (isomer 3), H-DC(1a)SC(2a)WQC(2a)WWLC(1a)R-[NH2], reference compound] | – | – | – | – | – | SIF (% remaining 1 h) ([1]; 1 h): 0%; SIF (% remaining 4 h) ([1]; 4 h): 0%; SGF (% remaining 1 h) [2]: 5%; SGF (% remaining 4 h) [2]: 0%
2 | CNC(=O)[C@H](Cc1cccnc1)NC(=O)[C@H](CCN)NC(=O)[C@@H]1CCC(=O)NCc2ccc(cc2)CC(=O)N[C@@H](CO)C(=O)N[C@H]2CCC(=O)NCC[C@H](NC(=O)[C@H](CCNC(C)=O)NC(=O)[C@H](Cc3c[nH]c4ccccc34)NC2=O)C(=O)N[C@@H](Cc2ccc(OCCN)cc2)C(=O)N[C@@H](Cc2ccc3ccccc3c2)C(=O)N[C@@](C)(CC(C)C)C(=O)N1 [Compound 25, [4-Aminomethyl-phenylacetyl](1c)*SE(2c)W[Dab(Ac)][Dab](2c)[Y(2-aminoethoxy)][2-Nal][2-Me-Leu]E(1c)[Dab][3-(3-Pyridyl)-Ala]-[NHMe]] ([X1]SEW[Dab](Ac)[Dab][AEF][2Nal][αMeL]E[Dab][3Pal]-NHMe; lactam 3-6, N-10) | – | 91 | 88 | – | – | Emax [3]: 93%
3 | CNC(=O)[C@H](Cc1cccnc1)NC(=O)[C@H](Cc1c[nH]cn1)NC(=O)[C@@H]1CCC(=O)NCc2ccc(cc2)CC(=O)N[C@@H](CO)C(=O)N[C@H]2CCC(=O)NCC[C@H](NC(=O)[C@H](CCC(N)=O)NC(=O)[C@H](Cc3c[nH]c4ccccc34)NC2=O)C(=O)N[C@@H](Cc2ccc(OCCN)cc2)C(=O)N[C@@H](Cc2ccc3ccccc3c2)C(=O)N[C@@](C)(CC(C)C)C(=O)N1 [Compound 34, [4-Aminomethyl-phenylacetyl](1c)*SE(2c)WQ[Dab](2c)[Y(2-aminoethoxy)][2-Nal][2-Me-Leu]E(1c)H[3-(3-Pyridyl)-Ala]-[NHMe]] ([X1]SEWQ[Dab][AEF][2Nal][αMeL]EH[3Pal]-NHMe; lactam 3-6, N-10) | 90 | 56 | – | 13 | 96 | remaining at 1 h, 10 µM ([1]; 1 h): 87%
4 | CC(C)C[C@@H]1NC(=O)[C@H](Cc2ccc3ccccc3c2)NC(=O)[C@H](Cc2c[nH]c3ccccc23)NC(=O)[C@@H]2CSCC(=O)CSC[C@H](NC(=O)[C@H](CO)NC(=O)c3cccc(c3)CNC(=O)CC[C@@H](C(=O)N[C@@H](CCCNC(=N)N)C(N)=O)NC1=O)C(=O)N[C@@H](Cc1c[nH]c3ccccc13)C(=O)N[C@@H](CCC(N)=O)C(=O)N2 [Ref 37, [(3-Aminomethyl)benzoyl](1c)*SC(2a)WQC(2a)W[2-Nal]LE(1c)R-[NH2], reference compound] ([3Amb]SCWQCW[2Nal]LER-NH2; linker 3-6 via CH2COCH2; lactam N-10) | – | – | – | – | – | SGF (% remaining 1 h) [2]: 2%; SGF (% remaining 4 h) [2]: 1%

Continued, in another order:

Row | % displacement (hIL-23R binding) [3] [%] | remaining at 4 h, 10 µM ([1]; 4 h) [%] | remaining at 4 h, 10 µM [2] [%] | IC50 [3] [pM] | remaining at 1 h, 10 µM [2] [%] | Compound | further results
5 | 102 | 75 | 82 | – | – | CC(C)C[C@]1(C)NC(=O)[C@H](Cc2ccc3ccccc3c2)NC(=O)[C@H](Cc2ccc(OCCN)cc2)NC(=O)[C@@H]2CCNC(=O)CC[C@H](NC(=O)[C@H](CO)NC(=O)Cc3ccc(cc3)CNC(=O)CC[C@@H](C(=O)N[C@@H](CCN)C(=O)N[C@@H](Cc3cn(C)cn3)C(N)=O)NC1=O)C(=O)N[C@@H](Cc1c[nH]c3ccccc13)C(=O)N[C@@H](CCC(N)=O)C(=O)N2 [Compound 14, [4-Aminomethyl-phenylacetyl](1c)*SE(2c)WQ[Dab](2c)[Y(2-aminoethoxy)][2-Nal][2-Me-Leu]E(1c)[Dab][H(Me)]-[NH2]] | –
6 | 98 | 65 | – | 27 | 96 | CCCC[C@H](NC(=O)[C@@H]1CCC(=O)NCc2ccc(cc2)CC(=O)N[C@@H](CO)C(=O)N[C@H]2CCC(=O)NCC[C@H](NC(=O)[C@H](CCC(N)=O)NC(=O)[C@H](Cc3c[nH]c4ccccc34)NC2=O)C(=O)N[C@@H](Cc2ccc(OCCN)cc2)C(=O)N[C@@H](Cc2ccc3ccccc3c2)C(=O)N[C@@](C)(CC(C)C)C(=O)N1)C(=O)N[C@@H](Cc1cccnc1)C(=O)NC [Compound 32, [4-Aminomethyl-phenylacetyl](1c)*SE(2c)WQ[Dab](2c)[Y(2-aminoethoxy)][2-Nal][2-Me-Leu]E(1c)[Nle][3-(3-Pyridyl)-Ala]-[NHMe]] | –
7 | – | 69 | 93 | 14 | – | CNC(=O)[C@H](Cc1cccnc1)NC(=O)[C@H](CCC(N)=O)NC(=O)[C@@H]1CCC(=O)NCc2ccc(cc2)CC(=O)N[C@@H](CO)C(=O)N[C@H]2CCC(=O)NCC[C@H](NC(=O)[C@H](CCC(N)=O)NC(=O)[C@H](Cc3c[nH]c4ccccc34)NC2=O)C(=O)N[C@@H](Cc2ccc(OCCN)cc2)C(=O)N[C@@H](Cc2ccc3ccccc3c2)C(=O)N[C@@](C)(CC(C)C)C(=O)N1 [Compound 33, [4-Aminomethyl-phenylacetyl](1c)*SE(2c)WQ[Dab](2c)[Y(2-aminoethoxy)][2-Nal][2-Me-Leu]E(1c)Q[3-(3-Pyridyl)-Ala]-[NHMe]] ([X1]SEWQ[Dab][AEF][2Nal][αMeL]EQ[3Pal]-NHMe; lactam 3-6, N-10) | Emax [3]: 92%
8 | 101 | – | 94 | – | – | CNC(=O)[C@H](Cc1cccnc1)NC(=O)C1(NC(=O)[C@@H]2CCC(=O)NCc3ccc(cc3)CC(=O)N[C@@H](CO)C(=O)N[C@H]3CCC(=O)NCC[C@H](NC(=O)[C@H](CCC(N)=O)NC(=O)[C@H](Cc4c[nH]c5ccccc45)NC3=O)C(=O)N[C@@H](Cc3ccc(OCCN)cc3)C(=O)N[C@@H](Cc3ccc4ccccc4c3)C(=O)N[C@@](C)(CC(C)C)C(=O)N2)CCOCC1 [Compound 35, [4-Aminomethyl-phenylacetyl](1c)*SE(2c)WQ[Dab](2c)[Y(2-aminoethoxy)][2-Nal][2-Me-Leu]E(1c)[THP][3-(3-Pyridyl)-Ala]-[NHMe]] | remaining at 1 h, 10 µM ([1]; 1 h): 110%
9 | 94 | 55 | – | 14 | 96 | CNC(=O)[C@H](Cc1cccnc1)NC(=O)[C@H](CCO)NC(=O)[C@@H]1CCC(=O)NCc2ccc(cc2)CC(=O)N[C@@H](CO)C(=O)N[C@H]2CCC(=O)NCC[C@H](NC(=O)[C@H](CCC(N)=O)NC(=O)[C@H](Cc3c[nH]c4ccccc34)NC2=O)C(=O)N[C@@H](Cc2ccc(OCCN)cc2)C(=O)N[C@@H](Cc2ccc3ccccc3c2)C(=O)N[C@@](C)(CC(C)C)C(=O)N1 [Compound 36, [4-Aminomethyl-phenylacetyl](1c)*SE(2c)WQ[Dab](2c)[Y(2-aminoethoxy)][2-Nal][2-Me-Leu]E(1c)[hSer][3-(3-Pyridyl)-Ala]-[NHMe]] | –
